system: testosterone-enhanced ventral prostate and seminal vesicle weights; assay: Ventral Prostate and Seminal Vesicle Weight in vivo Assay; design: species or system rat; details: immature castrated male Sprague Dawley rats, once daily for five days, usually orally 40 mg/kg, with testosterone propionate 2 mg/kg s.c. Note: key: 'active' if the non weight adjusted prostate weight was ≦40 mg or the % Inhibition prostate weight, body weight adjusted was ≧40% @ 2 mg/day dosage; ID50's, if determined, of ≦15 mg/day also indicated an 'active' compound; listed herein as 'inactive' as they did not meet the specified criteria defined above.
Experimental: Immature (approximately 50 g) castrated male Sprague Dawley rats (Charles River) were treated once daily for five days with test compound (usually given orally at 40 mg/kg in a volume of 0.3 mL, in 30% cyclodextrin or 0.5% methylcellulose vehicle) and with testosterone propionate (given subcutaneously by injection at the nape of the neck at 2 mg/kg, in a volume of 0.1 mL in sesame oil). On the sixth day, the rats were euthanized by asphyxiation in carbon dioxide. Ventral prosatates and seminal vesicles were removed and their wet weights determined.
A test compound was said to be “active” if the non weight adjusted prostate weight was ≦40 mg or the % Inhibition prostate weight, body weight adjusted was ≧40% @ 2 mg/day dosage.

Compound	active / inactive: inhibition of testosterone-enhanced prostate weight
CCS(=O)(=O)CC(C)(O)c1cc2cc([N+](=O)[O-])c(C(F)(F)F)cc2n1C (single isomer, unassigned) [Compound 250]	active
CCSCC(C)(O)c1cc2cc(C)c(C(F)(F)F)cc2[nH]1 (racemic) [Compound 414]	inactive
OC1(c2cc3cc(Cl)c(C(F)(F)F)cc3[nH]2)CCSC1 (racemic) [Compound 14]	inactive
CCSCC(O)(CSCC)c1cc2cc([N+](=O)[O-])c(C(F)(F)F)cc2[nH]1 [Compound 13]	inactive
CCSCC(C)(O)c1cc2cc([N+](=O)[O-])c(C(F)(F)F)cc2o1 (racemic) [Compound 9]	inactive
CC(O)(COc1ccc(C#N)c(C(F)(F)F)c1)c1cc2cc(C#N)c(C(F)(F)F)cc2[nH]1 (stereo not drawn) [Compound 429, 2-[2-(4-Cyano-3-trifluoromethyl-phenoxy)-1-hydroxy-1-methyl-ethyl]-6-trifluoromethyl-1H-indole-5-carbonitrile]	inactive
CCSCC(O)c1cc2cc(C#N)c(C(F)(F)F)cc2[nH]1 (racemic) [Compound 410]	inactive
CCSCC(C)(O)c1cc2cc(C#N)c(C(F)(F)F)cc2n1CC(F)(F)F (racemic) [Compound 237]	active
C=Cc1c(C(C)(C)O)[nH]c2cc(C(F)(F)F)c([N+](=O)[O-])cc12 [Compound 281]	inactive
CSCn1c(C(C)(O)C(F)(F)F)cc2cc(C#N)c(C(F)(F)F)cc21 (racemic) [Compound 333]	active
CCSCC(C)(O)c1cc2cc(N)c(C(F)(F)F)cc2[nH]1 (stereo not drawn) [Compound 166]	inactive
CC(O)(COc1ccc(C#N)cc1)c1cc2cc(C#N)c(C(F)(F)F)cc2[nH]1 (stereo not drawn) [Compound 426, 2-[2-(4-Cyano-phenoxy)-1-hydroxy-1-methyl-ethyl]-6-trifluoromethyl-1H -indole-5-carbonitrile]	inactive
CC(C)(O)c1cc2cc(Br)ccc2[nH]1 [Compound 294]	inactive
CC(C)(O)c1[nH]c2cc(C(F)(F)F)c(Cl)cc2c1Cl [Compound 282]	inactive
CC(C)(O)c1[nH]c2cc(C(F)(F)F)c(C#N)cc2c1Br [Compound 288]	active
CC[S+]([O-])CC(C)(O)c1[nH]c2cc(C(F)(F)F)c(C#N)cc2c1C (mixture of isomers) [Compound 245]	inactive
CC(O)(c1cc2cc(C#N)c(C(F)(F)F)cc2[nH]1)C(F)(F)F (stereo not drawn) [Compound 329, 2-(2,2,2-Trifluoro-1-hydroxy-1-methyl-ethyl)-6-trifluoromethyl-1H-indole-5-carbonitrile]	active
CCSCC(C)(O)c1cc2cc(C#N)ncc2[nH]1 (stereo not drawn) [Compound 7]	inactive
CSCC(O)c1cc2cc(C#N)c(C(F)(F)F)cc2[nH]1 (racemic) [Compound 408]	inactive
CCSCC(C)(O)c1cc2cc(C#N)c(OC)cc2[nH]1 (racemic) [Compound 445]	inactive
CC(O)(COc1cccc([N+](=O)[O-])c1)c1cc2cc(C#N)c(C(F)(F)F)cc2[nH]1 (stereo not drawn) [Compound 428, 2-[1-Hydroxy-1-methyl-2-(3-nitro-phenoxy)-ethyl]-6-trifluoromethyl-1H -indole-5-carbonitrile]	inactive
CCSCC(C)(O)c1cc2cc(C#N)c(C(F)(F)F)cc2n1COC (racemic) [Compound 322]	inactive
C#Cc1c(C(C)(O)CSCC)[nH]c2cc(C(F)(F)F)c(C#N)cc12 (racemic) [Compound 326]	inactive
Cc1c(C(C)(C)O)[nH]c2cc(C(F)(F)F)c(C#N)cc12 [Compound 289]	active

Compound	active / inactive: inhibition of testosterone-enhanced prostate weight
CC(C)(O[Si](C)(C)C)c1cc2cc([N+](=O)[O-])c(C(F)(F)F)cc2n1S(C)(=O)=O [Compound 269]	inactive
CCS(=O)(=O)CC(O)c1cc2cc(C#N)c(C(F)(F)F)cc2[nH]1 (racemic) [Compound 412]	inactive
CC(C)(O)c1cc2cc(Cl)c(C(F)(F)F)cc2[nH]1 [Compound 285]	inactive
CCSCC(C)(O)c1cc2cc(C#N)c(Cl)cc2[nH]1 (racemic) [Compound 224]	active
CCSCC(C)(O)c1cc2cc(C#N)c(C(F)(F)F)cc2n1CC (racemic) [Compound 243]	active
CCSCC(C)(O)c1cc2cc(Cl)c(C#N)cc2[nH]1 (single isomer, unassigned) [Compound 228]	inactive
CCSCC(C)(O)c1[nH]c2cc(C(F)(F)F)c(C#N)cc2c1CC (racemic) [Compound 344]	active
CCSCC(C)(O)c1cc2cc(C#N)c(C)c(I)c2[nH]1 (racemic) [Compound 415]	inactive
CCS(=O)(=O)CC(C)(O)c1cc2cc(Cl)c(C(F)(F)F)cc2[nH]1 (racemic) [Compound 404]	active
CC(C)(O)c1[nH]c2cc(C(F)(F)F)c(C#N)cc2c1Cl [Compound 287]	inactive
CC(C)(O)c1[nH]c2cc(C(F)(F)F)c([N+](=O)[O-])cc2c1Br [Compound 277]	active
CC(O)(c1[nH]c2cc(C(F)(F)F)c(C#N)cc2c1C#C[Si](C)(C)C)C(F)(F)F (single isomer, unassigned) [Compound 347]	active
CC(C)(O)c1[nH]c2cc(C(F)(F)F)c(Cl)cc2c1Br [Compound 280]	inactive
CC(C)(O)c1cc2cc([N+](=O)[O-])c(C(F)(F)F)cc2[nH]1 [Compound 274]	inactive
CC(C)(O)c1[nH]c2cc(C(F)(F)F)c(Cl)cc2c1I [Compound 279]	inactive
CCSCC(C)(O)c1[nH]c2cc(C(F)(F)F)c(C#N)cc2c1C#C[Si](C)(C)C (racemic) [Compound 325]	inactive
CCSCC(C)(O)c1cc2cc(Cl)c(C(F)(F)F)cc2n1S(C)(=O)=O (racemic) [Compound 146]	inactive
CCSCC(C)(O)c1[nH]c2cc(C(F)(F)F)c(C#N)cc2c1I (racemic) [Compound 324]	inactive
CCS(=O)(=O)CC(C)(O)c1cc2cc(C#N)c(C(F)(F)F)cc2[nH]1 (single isomer, unassigned) [Compound 397]	inactive
CC(O)(c1[nH]c2cc(C(F)(F)F)c(C#N)cc2c1I)C(F)(F)F (racemic) [Compound 330]	active
N#Cc1cc2cc(C(O)(C(F)(F)F)C(F)(F)F)[nH]c2cc1C(F)(F)F [Compound 357]	active
CC(C)(O)c1cc2cc(Cl)c(C(F)(F)F)cc2n1S(C)(=O)=O [Compound 284]	active
CC(O)(CSCc1ccccn1)c1cc2cc([N+](=O)[O-])c(C(F)(F)F)cc2[nH]1 (racemic) [Compound 204]	inactive
CCSCC(C)(O)c1c(C)c2cc(C#N)c(C(F)(F)F)cc2n1C (single isomer, unassigned) [Compound 317]	inactive
